{"source": "patent US20100204157A1", "about": "“USE OF A PEPTIDE AS A THERAPEUTIC AGENT” (priority 2007, published 2010)", "system": "drug-resistant Mycobacterium tuberculosis", "conditions": "5 micrograms per ml", "note": "Where no end group is shown, it is not given here."}
{"substance": "FFVAP [Phe-Phe-Val-Ala-Pro]", "values": [{"measurement": "% inhibition", "value": 0.0, "unit": "%"}]}
